Values joined by “and” are separate entries in the source; they are usually repeats but may differ in a detail not shown here. Identical values can stand only once. ± gives the expanded uncertainty stated by the source.
Columns and labels:
[1] = Molar enthalpy of transition or fusion; conditions: Crystal; DSC
[2] = Crystal; for vapor or sublimation pressure: Calculated from knudsen effusion weight loss; for Normal melting temperature: DTA

c1ccc2cc3ccccc3cc2c1 [anthracene]
Conditions	Molar enthalpy of transition or fusion [kJ/mol]	Normal melting temperature [°C]
[1]	27.4 ± 3.9	–
[2]	–	217 ± 2

[2]
Conditions	vapor or sublimation pressure
301.3 K	1.3e-06 ± 1e-07 kPa
303.3 K	1.8e-06 ± 2e-07 kPa
303.6 K	1.7e-06 ± 2e-07 kPa
305.7 K	2.5e-06 ± 3e-07 kPa
305.9 K	2.2e-06 ± 2e-07 kPa
307.8 K	3.2e-06 ± 6e-07 kPa
308.1 K	3.9e-06 ± 6e-07 kPa
308.2 K	3.3e-06 ± 3e-07 kPa
310 K	4.3e-06 ± 4e-07 kPa
310.2 K	4.2e-06 ± 5e-07 kPa
310.5 K	4.5e-06 ± 5e-07 kPa
313.3 K	6.5e-06 ± 6e-07 kPa
314.5 K	7.3e-06 ± 7e-07 kPa
314.7 K	7.4e-06 ± 7e-07 kPa
314.9 K	7.6e-06 ± 8e-07 kPa
317.6 K	1.05e-05 ± 1e-06 kPa
318.8 K	1.1e-05 ± 1.1e-06 kPa
319.2 K	1.28e-05 ± 1.5e-06 kPa
322.3 K	1.81e-05 ± 1.8e-06 kPa
323.1 K	2.05e-05 ± 2e-06 kPa and 1.74e-05 ± 1.7e-06 kPa
323.2 K	2.12e-05 ± 2.1e-06 kPa
323.8 K	2.09e-05 ± 2e-06 kPa
326.6 K	2.96e-05 ± 2.9e-06 kPa
328 K	3.16e-05 ± 3.1e-06 kPa
328.6 K	3.48e-05 ± 3.5e-06 kPa
331.5 K	4.92e-05 ± 4.9e-06 kPa
333.1 K	6.27e-05 ± 6.2e-06 kPa
333.3 K	6.36e-05 ± 6.2e-06 kPa
333.7 K	6.31e-05 ± 6.1e-06 kPa
336.3 K	8.09e-05 ± 7.9e-06 kPa
338.2 K	8.49e-05 ± 8.3e-06 kPa
338.8 K	0.0001028 ± 1.2e-05 kPa and 9.99e-05 ± 1.1e-05 kPa
343.1 K	0.000173 ± 1.8e-05 kPa and 0.0001738 ± 1.8e-05 kPa
343.4 K	0.0001646 ± 1.7e-05 kPa and 0.0001599 ± 1.8e-05 kPa
348.1 K	0.0002492 ± 2.5e-05 kPa
348.2 K	0.0002587 ± 2.6e-05 kPa
353.2 K	0.0004347 ± 4.3e-05 kPa
363.2 K	0.001018 ± 0.00012 kPa
373.2 K	0.002158 ± 0.00026 kPa

c1ccc2c(c1)ccc1ccccc12 [phenanthrene]
Conditions	Molar enthalpy of transition or fusion [kJ/mol]	Normal melting temperature [°C]
[1]	15.1 ± 2.2	–
[2]	–	99 ± 2

[2]
Conditions	vapor or sublimation pressure [kPa]
296.2 K	1.61e-05 ± 1.6e-06
297.2 K	1.86e-05 ± 1.9e-06
298.2 K	2.1e-05 ± 2.1e-06
299.2 K	2.43e-05 ± 2.4e-06
300.2 K	2.7e-05 ± 2.7e-06
301.2 K	3e-05 ± 3e-06
302.2 K	3.43e-05 ± 3.4e-06
303.2 K	3.83e-05 ± 3.8e-06
304.2 K	4.3e-05 ± 4.3e-06
305.2 K	4.88e-05 ± 4.9e-06
306.2 K	5.4e-05 ± 5.4e-06
307.2 K	6.08e-05 ± 6e-06
308.2 K	6.73e-05 ± 6.7e-06
309.2 K	7.49e-05 ± 7.4e-06
310.2 K	8.41e-05 ± 8.3e-06
311.2 K	9.35e-05 ± 9.3e-06
312.2 K	0.0001041 ± 1e-05
313.2 K	0.0001151 ± 1.1e-05

From the NIST ThermoML archive (doi:10.1016/j.jct.2015.06.021)
